Values of other authors in publication PMC7745548 (International Journal of Tryptophan Research : IJTR, 2020).

What was measured:
CYP2C9 = conditions: O-demethylation major pathway
[1] = test system: human microsomal P450 1A2 (CYP1A2); conditions: different crystal structure (PDB code: 1FAG) ref 26, 28

## COc1ccc2c(c1)c(CC(=O)O)c(C)n2C(=O)c1ccc(Cl)cc1 [Indomethacin]
CYP2C9
  Metabolism by CYP2C9: mainly metabolised by CYP2C9
CYP1A2
  Metabolism by CYP1A2: only slightly metabolised by CYP1A2

## COc1ccc2[nH]cc(CCNC(C)=O)c2c1 [MLT, N-acetyl-5-methoxytryptamine]
[1]
  Distance between SOM and Fe(II) ion of heme: 4.15 Å
